The values below come from patent US20250129028A1, “COMPOUNDS AND METHODS FOR YAP/TEAD MODULATION AND INDICATIONS THEREFOR” (Opna Bio SA, priority 2022, published 2025).

The test system of the first assay is TEAD-dependent transcription. Nature of the assay: TEAD-dependent transcription cell-based reporter assay (MSTO-211H+12XGTIIC luciferase). The arrangement: species or system human. The following applies: Homo sapiens; MSTO-211H+12XGTIIC cell line, luciferase signal normalized to cell viability, 24 hours compound incubation; read-out: MSTO-211H GMean IC50 (uM) Cell Assay Reporter Cell Variant: TEAD. The text has this:
Determine Inhibitor Activity Against TEAD-Dependent Transcription in a Cell-Based Reporter Assay
The human mesothelioma cell line MSTO-211H was stably transfected with a pGL4.21 plasmid containing a synthetic promoter with 12 copies of the GTIIC TEAD response element that drives the expression of a luciferase reporter gene^1 using Lipofectamine transfection reagent (Thermo Fisher). Transfected cells were selected using puromycin and single cell clones expressing this construct (referred to as MSTO-211H+12XGTIIC) were generated by limiting dilution. MSTO-211H cells was characterized by genetic alterations in key components of the Hippo pathway^2, resulting in up-regulation of YAP/TEAD-mediated transcription. […] To evaluate TEAD inhibitors, the MSTO-211H+12XGTIIC cell line was seeded in a 96-well plate in 50 μL of culture media at 1×10^4 cells per well and incubated at 37° C. overnight. Serial dilutions of compounds (in total volume of 50 μL of culture media) were added to the cells and incubated at 37° C. for 24 hours. Each plate included cells treated with DMSO as high controls and cells treated with 20 μM of the reference compound K-975 (a known TEAD inhibitor)^3 as low controls. Cell viability was assayed by the addition of 25 μL of CellTiter-Fluor reagent (Promega) followed by a 30-minute incubation at 37° C. and quantification of the fluorescence signal (Ex400/Em505). Subsequently, luciferase expression was assayed by the addition of 25 μL of ONE-Glo reagent (Promega) followed by a 10-minute incubation at room temperature and quantification of the luminescence signal. The luminescence signal was normalized to the fluorescence signal to correct for any loss in cell viability over the 24-hour compound incubation period. The percentage of inhibition of normalized luminescence signal, indicative of compound-mediated inhibition of TEAD-dependent transcription, at individual compound concentrations relative to high and low controls was calculated. The data were analyzed by using nonlinear regression to generate IC50 values for individual compounds.
(A reporter such as luciferase makes a cellular process visible.)
The term IC50 denotes the concentration needed to halve the response being measured. In the case of `CP(C)(=O)CCC(=O)N1CCc2ccc(Oc3ccc(C(F)(F)F)cc3)cc2C1` [P-0041, 3-(dimethylphosphoryl)-1-(7-(4-(trifluorometh-yl)phenoxy)-3,4-dihydro-isoquinolin-2(1H)-yl)-propan-1-one], the IC50 was 0.001 to 10 µM. Same read-out and setting: next, `CS(=O)(=O)c1ccc(C(=O)N2CCc3ccc(Oc4ccc(C(F)(F)F)cc4)cc3C2)s1` [P-0084, (5-(methylsulfonyl)thio-phen-2-yl)(7-(4-(trifluoro-methyl)phenoxy)-3,4-dihydroisoquinolin-2(1H)-yl)methanone]: 0.001 to 10 µM; `CC(=O)N1CCC(c2c(Oc3ccc(C(F)(F)F)cc3)ccc3c2CN(C(=O)CCS(C)(=O)=O)CC3)CC1` [P-0213, 1-(8-(1-acetylpiperidin-4-yl)-7-(4-(trifluorometh-yl)phenoxy)-3,4-dihydro-isoquinolin-2(1H)-yl)-3-(methylsulfonyl)pro-pan-1-one]: 0.001 to 10 µM; `N=C(N)NCCC(=O)N1CCc2ccc(Oc3ccc(C(F)(F)F)cc3)cc2C1` [P-0106, 1-(3-oxo-3-(7-(4-(trifluoromethyl)phen-oxy)-3,4-dihydroisoquin-olin-2(1H)-yl)propyl)-guanidine]: 0.001 to 10 µM. As for `O=C(CCn1cncn1)N1CCc2ccc(Oc3ccc(C(F)(F)F)c(F)c3)cc2C1` [P-0153, 1-(7-(3-fluoro-4-(trifluoromethyl)phen-oxy)-3,4-dihydroisoquin-olin-2(1H)-yl)-3-(1H-1,2,4-triazol-1-yl)propan-1-one], the IC50 lay within 0.001 to 10 µM. Same read-out and setting: next, `NC(=O)c1cccc(N2CCc3ccc(Oc4ccc(C(F)(F)F)cc4)cc3C2)n1` [P-0228, 6-(7-(4-(trifluoromethyl)-phenoxy)-3,4-dihydro-isoquinolin-2(1H)-yl)-picolinamide]: 0.001 to 10 µM; `CS(=O)(=O)CCC(=O)N1CCc2ccc(Oc3ccc(C(F)(F)F)cc3)c(-c3ccc(C4CC4)nc3)c2C1` [P-0207, 1-(8-(6-cyclopropylpyr-idin-3-yl)-7-(4-(trifluoro-methyl)phenoxy)-3,4-dihydroisoquinolin-2(1H)-yl)-3-(methylsul-fonyl)propan-1-one]: 0.001 to 10 µM; `Nc1cncc(C(=O)N2CCc3c(cccc3Oc3ccc(C(F)(F)F)cc3)C2)n1` [P-0244, (6-aminopyrazin-2-yl)(5-(4-(trifluoromethyl)phen-oxy)-3,4-dihydroisoquin-olin-2(1H)-yl)methanone]: 0.001 to 10 µM.

Regarding `NC(=O)CCC(=O)N1CCc2ccc(Oc3ccc(C(F)(F)F)cc3)cc2C1` [P-0039, 4-oxo-4-(7-(4-(trifluoro-methyl)phenoxy)-3,4-dihydroisoquinolin-2(1H)-yl)butanamide], the IC50 was 0.001 to 10 µM. On the same count and under the same terms, next, `O=C(C1CCS(=O)(=O)CC1)N1CCc2ccc(Oc3ccc(C(F)(F)F)c(F)c3)cc2C1` [P-0143, (1,1-dioxidotetrahydro-2H-thiopyran-4-yl)(7-(3-fluoro-4-(trifluorometh-yl)phenoxy)-3,4-dihydro-isoquinolin-2(1H)-yl)-methanone]: 0.001 to 10 µM; `C=CS(=O)(=O)N1CCC(C(=O)N2CCc3ccc(Oc4ccc(C(F)(F)F)c(F)c4)cc3C2)CC1` [P-0159]: 0.001 to 10 µM.

With `CC(=O)N1CC(Cc2c(Oc3ccc(C(F)(F)F)cc3)ccc3c2CN(C(=O)CCS(C)(=O)=O)CC3)C1` [P-0216, 1-(8-((1-acetylazetidin-3-yl)methyl)-7-(4-(trifluoromethyl)phen-oxy)-3,4-dihydroisoquin-olin-2(1H)-yl)-3-(methyl-sulfonyl)propan-1-one], the IC50 lay in the range of 0.001 to 10 µM. On to `CC(=O)N1CC(CC2c3cc(Oc4ccc(C(F)(F)F)cc4)ccc3CCN2C(=O)CCS(C)(=O)=O)C1` (stereo not drawn) [P-0200, 1-(1-((1-acetylazetidin-3-yl)methyl)-7-(4-(trifluoromethyl)phen-oxy)-3,4-dihydroisoquin-olin-2(1H)-yl)-3-(methyl-sulfonyl)propan-1-one], for which the IC50 lay within 0.001 to 10 µM. For `NS(=O)(=O)N1CC(C(=O)N2CCc3ccc(Oc4ccc(C(F)(F)F)cc4)cc3C2)C1` [P-0102, 3-(7-(4-(trifluoromethyl)-phenoxy)-1,2,3,4-tetra-hydroisoquinoline-2-carbonyl)azetidine-1-sulfonamide], the IC50 lay in the range of 0.001 to 10 µM.

Consider `C=CC(=O)NCC(=O)N1CCc2ccc(Oc3ccc(C(F)(F)F)c(F)c3)cc2C1` [P-0115, N-(2-(7-(3-fluoro-4-(trifluoromethyl)phen-oxy)-3,4-dihydroisoquin-olin-2(1H)-yl)-2-oxoeth-yl)acrylamide], for which the 50% inhibitory concentration (IC50) was in the range of 0.001 to 10 µM.

For `CS(=O)(=O)c1ccc(C(=O)N2CCc3ccc(Oc4ccc(C(F)(F)F)cc4)cc3C2)cn1` [P-0082, (6-(methylsulfonyl)pyr-idin-3-yl)(7-(4-(trifluoro-methyl)phenoxy)-3,4-dihydroisoquinolin-2(1H)-yl)methanone], the IC50 lay in the range of 0.001 to 10 µM. `CC(C)C(=O)N1CCc2c(cccc2Oc2ccc(C(F)(F)F)cc2)C1` [P-0234, 2-methyl-1-(5-(4-(trifluoromethyl)phen-oxy)-3,4-dihydroisoquin-olin-2(1H)-yl)propan-1-one]: the IC50 is 0.001 to 10 µM. On to `CS(=O)(=O)CCC(=O)N1CCc2ccc(-c3ccc(OC(F)(F)F)cc3)cc2C1` [P-0277, 3-(methylsulfonyl)-1-(7-(4-(trifluoromethoxy)phenyl)-3,4-dihydroisoquinolin-2(1H)-yl)propan-1-one], for which the IC50 was in the range of 10 to 100 µM. On the same count and under the same terms, next, `O=C(NC1CCCC1)N1CCc2ccc(Oc3ccc(C(F)(F)F)cc3)cc2C1` [P-0037, N-cyclopentyl-7-(4-(trifluoromethyl)phen-oxy)-3,4-dihydroiso-quinoline-2(1H)-carbox-amide]: 0.001 to 10 µM; `CN(C)C1CC(C(=O)N2CCc3ccc(Oc4ccc(C(F)(F)F)c(F)c4)cc3C2)C1` (stereo not drawn) [P-0111, (3-(dimethylamino)cyclo-butyl)(7-(3-fluoro-4-(trifluoromethyl)phen-oxy)-3,4-dihydroisoquin-olin-2(1H)-yl)methanone]: 0.001 to 10 µM; `O=C(NC1CC1)N1CCc2ccc(Oc3ccc(C(F)(F)F)cc3)cc2C1` [P-0004, N-cyclopropyl-7-(4-(trifluoromethyl)phen-oxy)-3,4-dihydroiso-quinoline-2(1H)-carbox-amide]: 0.001 to 10 µM. On the same count and under the same terms, under `COC(=O)[C@@H]1Cc2ccc(Oc3ccc(C(F)(F)F)cc3)cc2CN1C(=O)CCS(C)(=O)=O` [P-0224, methyl (S)-2-(3-(methyl-sulfonyl)propanoyl)-7-(4-(trifluoromethyl)-phenoxy)-1,2,3,4-tetra-hydroisoquinoline-3-carboxylate] stands 0.001 to 10 µM; under `CS(=O)(=O)N1CCc2ccc(Oc3ccc(C(F)(F)F)cc3)cc2C1` [P-0005, 2-(methylsulfonyl)-7-(4-(trifluoromethyl)phen-oxy)-1,2,3,4-tetrahydro-isoquinoline], 0.001 to 10 µM. Regarding `CS(=O)(=O)CCCN1CCc2ccc(Oc3ccc(C(F)(F)F)cc3)cc2C1` [P-0053, 2-(3-(methylsulfonyl)-propyl)-7-(4-(trifluoro-methyl)phenoxy)-1,2,3,4-tetrahydroisoquinoline], the half-inhibitory concentration (IC50) lay in the range of 0.001 to 10 µM.

For the compound `NC(=O)NCC(=O)N1CCc2ccc(Oc3ccc(C(F)(F)F)cc3)cc2C1` [P-0079, 1-(2-oxo-2-(7-(4-(trifluoromethyl)phen-oxy)-3,4-dihydroisoquin-olin-2(1H)-yl)ethyl)urea], the IC50 was 0.001 to 10 µM. The same measure, in the same setting: next, `CCC1c2cc(Oc3ccc(C(F)(F)F)cc3)ccc2CCN1C(=O)CNC(N)=O` (stereo not drawn) [P-0219, 1-(2-(1-ethyl-7-(4-(trifluoromethyl)phen-oxy)-3,4-dihydroisoquin-olin-2(1H)-yl)-2-oxoeth-yl)urea]: 0.001 to 10 µM. Still for that read-out and setting: under `CNC(=O)N1CCc2ccc(Oc3ccc(C(F)(F)F)cc3)cc2C1` [P-0016, N-methyl-7-(4-(trifluoro-methyl)phenoxy)-3,4-dihydroisoquinoline-2(1H)-carboxamide] stands 0.001 to 10 µM.

`CS(=O)(=O)N1CC(C(=O)N2CCc3ccc(Oc4ccc(C(F)(F)F)cc4)cc3C2)C1` [P-0080, (1-(methylsulfonyl)azeti-din-3-yl)(7-(4-(trifluoro-methyl)phenoxy)-3,4-dihydroisoquinolin-2(1H)-yl)methanone]: the IC50 was in the range of 0.001 to 10 µM. As for `NS(=O)(=O)CCC(=O)N1CCc2ccc(Oc3ccc(C(F)(F)F)c(F)c3)cc2C1` [P-0123, 3-(7-(3-fluoro-4-(trifluoromethyl)phen-oxy)-3,4-dihydroisoquin-olin-2(1H)-yl)-3-oxopro-pane-1-sulfonamide], the IC50 was in the range of 0.001 to 10 µM.

Staying with this assay, now noted: MSTO-211H+12XGTIIC cell line, luciferase signal normalized to cell viability, 24 hours compound incubation; read-out: MSTO-211H GMean IC50 (uM) Cell Assay Reporter Cell Variant: TEAD.
Consider `CC(=O)N1CCC(C2c3cc(Oc4ccc(C(F)(F)F)cc4)ccc3CCN2C(=O)CCS(C)(=O)=O)C1` (stereo not drawn) [P-0204, 1-(1-(1-acetylpyrrolidin-3-yl)-7-(4-(trifluorometh-yl)phenoxy)-3,4-dihydro-isoquinolin-2(1H)-yl)-3-(methylsulfonyl)-propan-1-one], for which the IC50 was 0.001 to 10 µM.
